Reference: patent US8192962B2, “Processes for detecting toxic substances” (Daikin Industries, Ltd., priority 2001, dated 2012)

System: Energy system protein genes
Assay: DNA chip mRNA expression in yeast, energy system protein genes (Table 4)
Format: cell-based, Saccharomyces cerevisiae S288C
Procedure, shortened: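 Cells were grown at 25° C. in YPD, treated at logarithmic phase for 2 h with a chemical at a concentration inhibiting growth but not causing death, and compared with untreated cultures. Labeled cDNA was hybridized to a DNA chip carrying all yeast genes, and the expression ratio was taken from scanner fluorescence.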

Measured: The level of expressed mRNA in the presence of chemical substance/The level of expressed mRNA in the absence of chemical substance

C=CC=O [(14), acrolein]
0.6: yeast gene YBL099W, cells incubated two hours with the chemical substance | yeast gene YFR053C | yeast gene YGR254W
0.9: yeast gene YAL060W | yeast gene YCR012W | yeast gene YER178W | yeast gene YGL187C, cells incubated two hours with the chemical substance | yeast gene YGL256W, cells incubated two hours with the chemical substance | yeast gene YJL121C, cells incubated two hours with the chemical substance
5.8: yeast gene YHR179W
1.6: yeast gene YGL191W, cells incubated two hours with the chemical substance | yeast gene YGR174C, cells incubated two hours with the chemical substance
1.3: yeast gene YBL058W, cells incubated two hours with the chemical substance | yeast gene YCR046C, cells incubated two hours with the chemical substance | yeast gene YJL052W
1.5: yeast gene YDL107W, cells incubated two hours with the chemical substance | yeast gene YDR079W, cells incubated two hours with the chemical substance | yeast gene YDR178W, cells incubated two hours with the chemical substance | yeast gene YDR231C | yeast gene YDR298C, cells incubated two hours with the chemical substance | yeast gene YDR529C, cells incubated two hours with the chemical substance | yeast gene YIL160C
1.9: yeast gene YCR105W, cells incubated two hours with the chemical substance | yeast gene YJL166W, cells incubated two hours with the chemical substance
0.8: yeast gene YBR221C, cells incubated two hours with the chemical substance | yeast gene YDL078C, cells incubated two hours with the chemical substance
4.1: yeast gene YGR043C
1.4: yeast gene YBR299W | yeast gene YDL067C, cells incubated two hours with the chemical substance | yeast gene YDR377W, cells incubated two hours with the chemical substance | yeast gene YEL039C, cells incubated two hours with the chemical substance
1.7: yeast gene YBR185C, cells incubated two hours with the chemical substance
1.0: yeast gene YDR001C | yeast gene YGL205W, cells incubated two hours with the chemical substance | yeast gene YGR192C | yeast gene YJR009C
1.2: yeast gene YBR001C, cells incubated two hours with the chemical substance | yeast gene YDR050C, cells incubated two hours with the chemical substance | yeast gene YGL018C, cells incubated two hours with the chemical substance | yeast gene YGL062W | yeast gene YGR062C, cells incubated two hours with the chemical substance, 25° C., YPD medium | yeast gene YGR244C | yeast gene YIR031C, cells incubated two hours with the chemical substance
23.4: yeast gene YFL057C
3.7: yeast gene YDL021W
1.1: yeast gene YDL174C | yeast gene YDL181W, cells incubated two hours with the chemical substance | yeast gene YEL024W, cells incubated two hours with the chemical substance | yeast gene YJL216C, cells incubated two hours with the chemical substance
0.7: yeast gene YCL040W | yeast gene YGR087C, cells incubated two hours with the chemical substance
